From ChEMBL document CHEMBL6177939, “The role of silicon in drug discovery: a review” (RSC Med Chem, 2024)
≈ marks a conversion by molar mass, not a printed value.

Legend:
[1] = system: Human immunodeficiency virus 2; assay: Antiviral activity against HIV-2 ROD infected in human MT-4 cells assessed as reduction in virus-induced cytopathic effect incubated for 5 days by spectrophotometric based MTT assay; type: functional, organism-based; details: Human immunodeficiency virus 2, ROD, MT4, 120 h
[2] = Agonist activity at rat GPR81 transfected in T-REX-CHO cells by cAMP assay; type: cell-based
Rhizoctonia solani = assay: Antifungal activity against Rhizoctonia solani assessed as inhibition of fungal growth at 1 microg/ml relative to control; type: functional
[3] = target: Hydroxycarboxylic acid receptor 2 (Rattus norvegicus, UniProt Q80Z39); assay: Agonist activity at rat GPR109A transfected in T-REX-CHO cells by cAMP assay; type: cell-based
Chain of Hydroxycarboxylic acid receptor 2 (Q80Z39 whole entry): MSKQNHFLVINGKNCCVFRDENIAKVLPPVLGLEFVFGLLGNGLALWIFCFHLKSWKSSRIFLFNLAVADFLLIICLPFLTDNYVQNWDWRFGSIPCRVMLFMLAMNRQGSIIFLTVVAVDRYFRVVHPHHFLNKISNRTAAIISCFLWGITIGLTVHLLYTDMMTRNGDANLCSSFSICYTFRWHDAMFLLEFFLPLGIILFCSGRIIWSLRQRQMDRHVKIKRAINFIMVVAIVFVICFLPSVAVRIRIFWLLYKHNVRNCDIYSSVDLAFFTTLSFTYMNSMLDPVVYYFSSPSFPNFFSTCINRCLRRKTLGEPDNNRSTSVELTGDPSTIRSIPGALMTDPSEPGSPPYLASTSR

MG-22A [4] = assay: Cytotoxicity against mouse MG-22A cells assessed as reduction in cell growth by measuring lethal concentration for 72 hrs by MTT assay; type: functional
HT-1080 [5] = assay: Cytotoxicity against human HT-1080 cells assessed as reduction in cell growth by measuring lethal concentration for 72 hrs by MTT assay; type: functional
[6] = system: Staphylococcus epidermidis; assay: Antibacterial activity against Staphylococcus epidermidis assessed as inhibition of bacterial growth incubated for 24 hrs by nutrient agar plate method; type: functional
MG-22A [7] = assay: Cytotoxicity against mouse MG-22A cells assessed as reduction in cell growth measured for 72 hrs by crystal violet staining based analysis; type: functional
HT-1080 [8] = assay: Cytotoxicity against human HT-1080 cells assessed as reduction in cell growth measured for 72 hrs by crystal violet staining based analysis; type: functional; details: HT-1080, 72 h
HCT-116 = assay: Antiproliferative activity against human HCT-116 cells assessed as reduction in cell viability incubated for 72 hrs by MTT assay; type: functional, cell-based; details: HCT-116, 72 h
Vibrio cholerae = assay: Antibacterial activity against Vibrio cholerae assessed as inhibition of bacterial growth; type: functional
Escherichia coli [9] = assay: Antibacterial activity against Escherichia coli assessed as reduction in bacterial growth incubated for 12 hrs by broth micr-dilution method; type: functional
Staphylococcus aureus [10] = assay: Antibacterial activity against Staphylococcus aureus assessed as reduction in bacterial growth incubated for 12 hrs by broth micr-dilution method; type: functional
Bacillus subtilis = assay: Antibacterial activity against Bacillus subtilis assessed as reduction in bacterial growth incubated for 12 hrs by broth micr-dilution method; type: functional
[11] = target: Sigma non-opioid intracellular receptor 1 (Cavia porcellus, UniProt Q60492); assay: Binding affinity to guinea pig sigma 1 receptor assessed as inhibition constant
Chain of Sigma non-opioid intracellular receptor 1 (Q60492 whole entry): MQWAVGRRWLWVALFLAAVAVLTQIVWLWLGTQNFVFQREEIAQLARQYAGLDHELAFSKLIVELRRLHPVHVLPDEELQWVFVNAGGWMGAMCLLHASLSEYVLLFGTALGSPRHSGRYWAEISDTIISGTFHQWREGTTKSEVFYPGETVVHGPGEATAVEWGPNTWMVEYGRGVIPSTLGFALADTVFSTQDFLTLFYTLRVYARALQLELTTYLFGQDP

Escherichia coli [12] = assay: Antibacterial activity against Escherichia coli PTCC 1330 assessed as reduction in cell growth incubated for 24 hrs by Mueller-Hinton Broth micro dilution method; type: functional
Salmonella typhimurium = assay: Antibacterial activity against Salmonella enterica subsp. enterica serovar Typhimurium PTCC 1609 assessed as reduction in cell growth incubated for 24 hrs by Mueller-Hinton Broth micro dilution method; type: functional
Pseudomonas aeruginosa = assay: Antibacterial activity against Pseudomonas aeruginosa PTCC 1074 assessed as reduction in cell growth incubated for 24 hrs by Mueller-Hinton Broth micro dilution method; type: functional
Staphylococcus aureus [13] = assay: Antibacterial activity against Staphylococcus aureus PTCC 1112 assessed as reduction in cell growth incubated for 24 hrs by Mueller-Hinton Broth micro dilution method; type: functional
[14] = system: Panel NCI-60 (60 carcinoma cell lines); assay: Cytotoxicity against human Panel NCI-60 (60 carcinoma cell lines) assessed as reduction in cell growth incubated for 72 hrs by CCK-8 assay; type: functional, cell-based

Compound Cc1cn([C@@H]2O[C@H](CO[Si](C)(C)C(C)(C)C)[C@@]3(OS(=O)(=O)C=C3N)[C@H]2O[Si](C)(C)C(C)(C)C)c(=O)[nH]c1=O has an EC50 [1] of 0.034 µg/mL (≈ 0.0576 µM).
In the case of Cc1cn([C@@H]2O[C@H](CO[Si](C)(C)C(C)(C)C)[C@@]3(OS(=O)(=O)C=C3N)[C@H]2O)c(=O)[nH]c1=O, the EC50 [1] is reported as over 100 µg/mL.
In the case of CC(=O)Nc1ccn([C@@H]2O[C@H](CO[Si](C)(C)C(C)(C)C)[C@@]3(OS(=O)(=O)C=C3N)[C@H]2O[Si](C)(C)C(C)(C)C)c(=O)n1, the EC50 [1] is reported as 0.097 µg/mL (≈ 0.157 µM).
Work on CCOc1cc(Cl)c(C(=O)NC(=O)Nc2nc3c(s2)CCCC3)cc1N1CCOCC1 yielded an EC50 [2] of 240 nM.
With Cn1cc(C(=O)C(C#N)c2cccc([Si](C)(C)C)c2)c(C(F)F)n1 (stereo not given) the inhibition at 1 µg/mL (Rhizoctonia solani) was 91.2%.
Cn1cc(C(=O)C(C#N)c2ccc([Si](C)(C)C)cc2F)c(C(F)F)n1 (stereo not given) showed an inhibition at 1 µg/mL (Rhizoctonia solani) of 91.2%.
Work on CCOc1cc(Cl)c(C(=O)NC(=O)Nc2nc3c(s2)CCCC3)cc1-n1cccn1 yielded an EC50 [2] of 18 nM and an EC50 [3] of 250 nM.
CCOc1cc(Cl)c(C(=O)NC(=O)Nc2nc3c(s2)C[Si](c2ccccc2)(c2ccc(OC)cc2)CC3)cc1-n1cccn1 (stereo not given) showed an EC50 [2] of 210 nM and an EC50 [3] of 470 nM.
For CCOc1cc(Cl)c(C(=O)NC(=O)Nc2nc3c(s2)C[Si](C)(c2ccc(OC)cc2)CC3)cc1-n1cccn1 (stereo not given), the EC50 [2] was 210 nM and the EC50 [3] was 470 nM.
CCCCCCC[Si](C)(C)OCC[N+]1(C)CCc2ccccc2C1.[I-] (stereo not given) gave an LC50 (MG-22A [4]) of 1 µg/mL and an LC50 (HT-1080 [5]) of under 1 µg/mL.
For CC[Si](CC)(CC)c1cccc(CN(Cc2ccccn2)Cc2ccccn2)c1O, the MIC [6] was 1.2 µg/mL (≈ 2.86 µM).
For CCC[Si]1(CCC)CCc2nc(NC(=O)NC(=O)c3cc(N4CCOCC4)c(OCC)cc3Cl)sc2C1, the EC50 [2] was 1000 nM and the EC50 [3] was 1200 nM.
In the case of CC[Si](CC)(CC)c1ccc([Si](C)(CCCN2CCCCC2)c2ccc([Si](CC)(CC)CC)o2)o1, the IC50 (MG-22A [7]) is reported as 3 µg/mL (≈ 5.64 µM) and the IC50 (HT-1080 [8]) is reported as 3 µg/mL (≈ 5.64 µM).
CC[Si](CC)(CC)c1ccc([Si](C)(CCCN2CCN(C)CC2)c2ccc([Si](CC)(CC)CC)o2)o1 gave an IC50 (MG-22A [7]) of 3 µg/mL (≈ 5.48 µM) and an IC50 (HT-1080 [8]) of 3 µg/mL (≈ 5.48 µM).
For CC(C)(C)[Si](C)(C)OC1OC(=O)C(Br)=C1Br (stereo not given), the IC50 (HCT-116) was 1300 nM.
With O=c1c(I)cn(Cc2cn(CCC[Si-]345OCC[N+]3(CCO4)CCO5)nn2)c(=O)n1Cc1cn(CCC[Si-]234OCC[N+]2(CCO3)CCO4)nn1 (stereo not given) the MIC50 (Vibrio cholerae) was 0.18 µg/mL (≈ 0.217 µM), the MIC50 (Escherichia coli [9]) was 0.18 µg/mL (≈ 0.217 µM) and the MIC50 (Staphylococcus aureus [10]) was 0.18 µg/mL (≈ 0.217 µM). The MIC50 (Bacillus subtilis) was 0.18 µg/mL (≈ 0.217 µM).
Work on CCOc1cc(Cl)c(C(=O)NC(=O)Nc2nc3c(s2)C[Si](C)(c2c(OC)cccc2OC)CC3)cc1-n1cccn1 (stereo not given) yielded an EC50 [2] of 210 nM and an EC50 [3] of 470 nM.
In the case of CC(C)=CCN1CC[Si]2(CCCc3ccccc32)CC1, the Ki [11] is reported as 300 nM.
Compound C[Si](C)(C)C(S)(C(=S)CCCCn1nnc(Sc2ccccc2)n1)[Si](C)(C)C has an MIC (Escherichia coli [12]) of 3.91 µg/mL (≈ 8.34 µM), an MIC (Salmonella typhimurium) of 3.91 µg/mL (≈ 8.34 µM) and an MIC (Pseudomonas aeruginosa) of 3.91 µg/mL (≈ 8.34 µM). It also gave an MIC (Staphylococcus aureus [13]) of 3.91 µg/mL (≈ 8.34 µM).
With CC[Si](CC)(CC)OCC[N+]1(C)CCc2ccccc2C1.[I-] (stereo not given) the LC50 (MG-22A [4]) was 2 µg/mL and the LC50 (HT-1080 [5]) was under 1 µg/mL.
In the case of CCC[Si]1(c2ccc(OC)cc2)CCc2nc(NC(=O)NC(=O)c3cc(-n4cccn4)c(OCC)cc3Cl)sc2C1 (stereo not given), the EC50 [2] is reported as 210 nM and the EC50 [3] is reported as 470 nM.
In the case of O=c1c(Cl)cn(Cc2cn(CCC[Si-]345OCC[N+]3(CCO4)CCO5)nn2)c(=O)n1Cc1cn(CCC[Si-]234OCC[N+]2(CCO3)CCO4)nn1 (stereo not given), the MIC50 (Vibrio cholerae) is reported as 0.18 µg/mL (≈ 0.243 µM), the MIC50 (Escherichia coli [9]) is reported as 0.18 µg/mL (≈ 0.243 µM) and the MIC50 (Staphylococcus aureus [10]) is reported as 0.18 µg/mL (≈ 0.243 µM). For the same compound, the MIC50 (Bacillus subtilis) was 0.18 µg/mL (≈ 0.243 µM).
CCOc1cc(Cl)c(C(=O)NC(=O)Nc2nc3c(s2)C[Si](c2ccccc2)(c2c(OC)cccc2OC)CC3)cc1-n1cccn1 (stereo not given) gave an EC50 [2] of 210 nM and an EC50 [3] of 470 nM.
With CC1(C)CC(NC(=O)[C@H](Cc2ccc(-c3ccccc3)cc2)NC(=O)c2ccc(OCC[Si](C)(C)C)cc2)CC(C)(C)N1 the IC50 [14] was 1500 nM.
CCC[Si]1(c2c(OC)cccc2OC)CCc2nc(NC(=O)NC(=O)c3cc(-n4cccn4)c(OCC)cc3Cl)sc2C1 (stereo not given) showed an EC50 [2] of 210 nM and an EC50 [3] of 470 nM.
Work on CCCCCCCC[Si](C)(C)OCC[N+]1(C)CCc2ccccc2C1.[I-] (stereo not given) yielded an LC50 (MG-22A [4]) of 1 µg/mL and an LC50 (HT-1080 [5]) of under 1 µg/mL.
With CC(C)(C)[Si](C)(C)OC[C@H]1O[C@@H](n2ccc(=O)[nH]c2=O)[C@H](O[Si](C)(C)C(C)(C)C)[C@]12OS(=O)(=O)C=C2N the EC50 [1] was 0.114 µg/mL (≈ 0.198 µM).
In the case of CN1CCN(CCC[Si](C)(c2ccc([Si](C)(C)C)o2)c2ccc([Si](C)(C)C)o2)CC1, the IC50 (MG-22A [7]) is reported as 3 µg/mL (≈ 6.48 µM) and the IC50 (HT-1080 [8]) is reported as 3 µg/mL (≈ 6.48 µM).
For CCCCCCCCCCC[Si](C)(C)OCC[N+]1(C)CCc2ccccc2C1.[I-] (stereo not given), the LC50 (MG-22A [4]) was 1 µg/mL and the LC50 (HT-1080 [5]) was under 1 µg/mL.
CCCCCCCCCC[Si](C)(C)OCC[N+]1(C)CCc2ccccc2C1.[I-] (stereo not given) showed an LC50 (MG-22A [4]) of 1 µg/mL and an LC50 (HT-1080 [5]) of under 1 µg/mL.
